{"source": "patent US6429227B1", "about": "“Hydroxyeicosatetraenoate salts, compositions and methods of use in treating dry eye disorders” (Alcon Universal Ltd., priority 1999, dated 2002)", "format_in_all_cases": "physicochemical", "key": {"[1]": {"assay": "Stability of neat 15(S)-HETE free acid vs sodium salt, four days under ambient air, HPLC (Example 6)", "procedure": "15(S)-HETE free acid and 15(S)-HETE-sodium salt were stored under ambient air for four days and exposed to either a temperature of 40° C. in total darkness, or ambient temperature and 300 foot-candles of light (approximately Standard Fluorescent Room Light). Following the four day exposure, aliquots of the samples were analyzed by HPLC for percent remaining HETE and results are reported in Table 1: […]"}, "[2]": {"assay": "Stability of samples dried from ethanolic stock in amber glass vials at room temperature under ambient atmosphere, HPLC (Example 7)", "conditions": "for % Remaining: dried film", "excerpt": "Ethanolic stock solutions of 15(S)-HETE free acid and 15(S)-HETE free acid with an approximately equimolar amount of sodium hydroxide (to form the sodium salt in situ) were aliquoted to amber glass vials and dried under a stream of helium. The vials were stored at room temperature under ambient atmosphere. At various times, two vials of each were reconstituted with an aliquot of 50/50 acetonitrile/water and assayed by HPLC for 15(S)-HETE. The results are shown in Table 2 and illustrated in FIG. 1: […]"}, "[3]": {"assay": "Storage stability of 15(S)-HETE-sodium salt as neat solid or as solution in absolute ethanol, HPLC (Example 8)", "procedure": "15(S)-HETE-sodium salt as the neat solid under argon or as solutions in absolute ethanol under ambient atmosphere were stored in amber glass vials in a −20° C. freezer or at room temperature. At various times, the samples were analyzed by HPLC for percent of initial 15(S)-HETE remaining."}}}
{"smiles": "CCCCC[C@H](O)/C=C/C=C\\C/C=C\\C/C=C\\CCCC(=O)[O-].[Na+]", "note": "[15(S)-HETE-sodium salt, 5,8,11,13-Eicosatetraenoic acid, 15-hydroxy-[15S-(5Z,8Z,11Z,13E)]-sodium salt]", "values": [{"measurement": "% of Initial Amount Remaining", "setting": "[1]; 40° C., dark", "value": 86, "unit": "%"}, {"measurement": "% of Initial Amount Remaining", "setting": "[1]; ambient temp., 300 F-C light", "value": 58, "unit": "%"}, {"measurement": "% Remaining", "setting": "[2]; 0 hours", "value": 100, "unit": "%"}, {"measurement": "% Remaining", "setting": "[2]; 5 hours", "value": 94, "unit": "%"}, {"measurement": "% Remaining", "setting": "[2]; 24 hours", "value": 79, "unit": "%"}, {"measurement": "% Remaining", "setting": "[2]; 55 hours", "value": 66, "unit": "%"}, {"measurement": "% Remaining", "setting": "[2]; 72 hours", "value": 65, "unit": "%"}, {"measurement": "stability relative to the corresponding free acid (in words)", "setting": "[2]; up to 72 hours", "value": "more stable than the corresponding free acid"}, {"measurement": "% of Initial", "setting": "[3]; 1 mg/mL in absolute ethanol, ambient atmosphere, room temp., 2.0 weeks", "value": 101, "unit": "%"}, {"measurement": "% of Initial", "setting": "[3]; 1 mg/mL in absolute ethanol, ambient atmosphere, room temp., 4.4 weeks", "value": 101, "unit": "%"}, {"measurement": "% of Initial", "setting": "[3]; 1 mg/mL in absolute ethanol, ambient atmosphere, room temp., 6.0 weeks", "value": 101, "unit": "%"}, {"measurement": "% of Initial", "setting": "[3]; 1 mg/mL in absolute ethanol, ambient atmosphere, room temp., 8.4 weeks", "value": 101, "unit": "%"}, {"measurement": "% of Initial", "setting": "[3]; 1 mg/mL in absolute ethanol, ambient atmosphere, −20° C. freezer, 2.0 weeks", "value": 102, "unit": "%"}, {"measurement": "% of Initial", "setting": "[3]; 1 mg/mL in absolute ethanol, ambient atmosphere, −20° C. freezer, 4.4 weeks", "value": 102, "unit": "%"}, {"measurement": "% of Initial", "setting": "[3]; 1 mg/mL in absolute ethanol, ambient atmosphere, −20° C. freezer, 6.0 weeks", "value": 101, "unit": "%"}, {"measurement": "% of Initial", "setting": "[3]; 1 mg/mL in absolute ethanol, ambient atmosphere, −20° C. freezer, 8.4 weeks", "value": 101, "unit": "%"}, {"measurement": "% of Initial", "setting": "[3]; 10 mg/mL in absolute ethanol, ambient atmosphere, room temp., 2.0 weeks", "value": 101, "unit": "%"}, {"measurement": "% of Initial", "setting": "[3]; 10 mg/mL in absolute ethanol, ambient atmosphere, room temp., 4.4 weeks", "value": 101, "unit": "%"}, {"measurement": "% of Initial", "setting": "[3]; 10 mg/mL in absolute ethanol, ambient atmosphere, room temp., 6.0 weeks", "value": 101, "unit": "%"}, {"measurement": "% of Initial", "setting": "[3]; 10 mg/mL in absolute ethanol, ambient atmosphere, room temp., 8.4 weeks", "value": 100, "unit": "%"}, {"measurement": "% of Initial", "setting": "[3]; 10 mg/mL in absolute ethanol, ambient atmosphere, −20° C. freezer, 2.0 weeks", "value": 101, "unit": "%"}, {"measurement": "% of Initial", "setting": "[3]; 10 mg/mL in absolute ethanol, ambient atmosphere, −20° C. freezer, 4.4 weeks", "value": 102, "unit": "%"}, {"measurement": "% of Initial", "setting": "[3]; 10 mg/mL in absolute ethanol, ambient atmosphere, −20° C. freezer, 6.0 weeks", "value": 101, "unit": "%"}, {"measurement": "% of Initial", "setting": "[3]; 10 mg/mL in absolute ethanol, ambient atmosphere, −20° C. freezer, 8.4 weeks", "value": 101, "unit": "%"}, {"measurement": "% of Initial", "setting": "[3]; solid under argon, room temp., 2.0 weeks", "value": 72, "unit": "%"}, {"measurement": "% of Initial", "setting": "[3]; solid under argon, room temp., 4.4 weeks", "value": 61, "unit": "%"}, {"measurement": "% of Initial", "setting": "[3]; solid under argon, room temp., 6.0 weeks", "value": 42, "unit": "%"}, {"measurement": "% of Initial", "setting": "[3]; solid under argon, room temp., 8.4 weeks", "value": 28, "unit": "%"}, {"measurement": "% of Initial", "setting": "[3]; solid under argon, −20° C. freezer, 2.0 weeks", "value": 99, "unit": "%"}, {"measurement": "% of Initial", "setting": "[3]; solid under argon, −20° C. freezer, 4.4 weeks", "value": 97, "unit": "%"}, {"measurement": "% of Initial", "setting": "[3]; solid under argon, −20° C. freezer, 6.0 weeks", "value": 95, "unit": "%"}, {"measurement": "% of Initial", "setting": "[3]; solid under argon, −20° C. freezer, 8.4 weeks", "value": 92, "unit": "%"}]}
{"smiles": "CCCCC[C@H](O)/C=C/C=C\\C/C=C\\C/C=C\\CCCC(=O)O", "note": "[15(S)-HETE-free acid, 15(S)-HETE free acid, reference compound]", "values": [{"measurement": "% of Initial Amount Remaining", "setting": "[1]; 40° C., dark", "value": 0, "unit": "%"}, {"measurement": "% of Initial Amount Remaining", "setting": "[1]; ambient temp., 300 F-C light", "value": 2, "unit": "%"}, {"measurement": "% Remaining", "setting": "[2]; 0 hours", "value": 100, "unit": "%"}, {"measurement": "% Remaining", "setting": "[2]; 5 hours", "value": 4, "unit": "%"}, {"measurement": "% Remaining", "setting": "[2]; 24 hours", "value": 0, "unit": "%"}, {"measurement": "% Remaining", "setting": "[2]; 55 hours", "value": 0, "unit": "%"}, {"measurement": "% Remaining", "setting": "[2]; 72 hours", "value": 0, "unit": "%"}]}
